From US9452130B2, “Pharmaceutical composition for preparing drug delivery nano/micro bubbles” (priority 2014, dated 2016)

How the values were obtained:
cells = experiment: Cell images of cells co-cultured with the components of the nano/micro bubbles (FITC-insulin transmission); assay type: cell-based; details: cells co-cultured with the component; stained with Cld 4, E-cadherin, DAPI; FIG. 3
diabetic rats = experiment: Blood glucose change in diabetic rats after oral or subcutaneous administration; assay type: in vivo, male Wistar rats; details: subcutaneous injection, 5 IU/kg, 0 to 10 hours; FIG. 5
Protocol: Animal experimental procedures were performed based on the management and use of laboratory animals guidelines promulgated by the Council of Agriculture. About 300 to 350 grams of male rats (male Wistar rats) were used. The animal experiments were performed to investigate the treatment of diabetic rats using insulin-embedded carrier system by oral administration of drugs. During experiment, the rats were administrated by oral (30 IU/Kg) and subcutaneous (5 IU/Kg) administration after the rats were fixed. At different times, the animals were placed in the blood-drawing fixation frame to expose the tail, and then the tails were disinfected with iodine to prevent bacterial infection. […] Meanwhile, pharmacokinetics was measured using enzyme immunoassay. In the present example, groups comprising nano/micro bubbles of the present invention (containing 30 IU/kg of insulin), oral administration (30 IU/kg of insulin) and subcutaneous injection of insulin (5 IU/kg) are compared. The change rates in plasma insulin and blood glucose concentration from 0 to 10 hours after subjects taking insulin or injected with insulin were recorded respectively, and the results are illustrated in FIGS. 5a and 5b.

Row | Compound | transmission of FITC-insulin (pathway) (cells) | change rate of the blood glucose (diabetic rats)
1 | O=C(O)CN(CCN1CC(=O)OC(=O)C1)CCN1CC(=O)OC(=O)C1 [DTPA dianhydride, diethylenetriaminepentaacetic dianhydride] | can promote transmission of FITC-insulin via paracellular pathway | –
2 | CCCCCCCCCCCCOS(=O)(=O)[O-].[Na+] [SDS] | can promote transmission of FITC-insulin via both of paracellular pathway and transcellular pathway | –
3 | insulin | – | rapidly declined and rose again
